Results taken from paper PMC10922394 (Journal of internal medicine, 2023).

Biological target: T1, rChAT (recombinant choline acetyltransferase) (Homo sapiens, UniProt P28329)
T1 sequence (P28329 119-748): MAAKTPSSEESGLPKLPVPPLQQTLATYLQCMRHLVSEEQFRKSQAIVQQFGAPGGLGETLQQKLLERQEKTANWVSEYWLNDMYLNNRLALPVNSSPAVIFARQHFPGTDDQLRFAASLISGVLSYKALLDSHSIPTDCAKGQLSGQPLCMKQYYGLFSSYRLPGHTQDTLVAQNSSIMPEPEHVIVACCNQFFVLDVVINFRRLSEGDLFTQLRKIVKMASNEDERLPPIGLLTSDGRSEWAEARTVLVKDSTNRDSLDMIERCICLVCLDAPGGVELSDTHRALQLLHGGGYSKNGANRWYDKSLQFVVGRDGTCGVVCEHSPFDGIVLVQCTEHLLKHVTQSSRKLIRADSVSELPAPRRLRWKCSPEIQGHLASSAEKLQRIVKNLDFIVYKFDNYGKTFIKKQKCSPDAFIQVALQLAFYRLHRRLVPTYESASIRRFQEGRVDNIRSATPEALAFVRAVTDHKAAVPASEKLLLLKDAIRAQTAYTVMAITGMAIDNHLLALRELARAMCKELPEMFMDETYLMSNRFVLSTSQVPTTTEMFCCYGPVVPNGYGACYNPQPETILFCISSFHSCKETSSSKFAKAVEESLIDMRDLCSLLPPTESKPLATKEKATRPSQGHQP
Experiment: colorimetric ChAT assay
Type: biochemical

IC50: 148 nM
Structure (SMILES): C[N+](C)(C)CCC(=O)c1cccc2ccccc12 [alpha-NETA]
